Results published in US10721967B2, “Vaporizing devices and methods for delivering a compound using the same” (Altria Client Services LLC, priority 2016, dated 2020).
Where two headings read alike, the source gives them in different places.

Legend:
[1] = Short Blessed Test cognitive status evaluation; format: in vivo, human; settings: for SET 0 min (Short Blessed Test score): 0 min (prior to inhalation); for SET 0 min (Short Blessed Test score) / SET 30 min (Short Blessed Test score) / SET 120 min (Short Blessed Test score): mean; for SET 30 min (Short Blessed Test score): 30 min after inhalation
Protocol: (§1) Blood pressure, pulse rate, and oxygen saturation were also recorded at baseline, 30, 60, 90, and 120 minutes post inhalation. A cognitive test was conducted using the Short Blessed Test prior to the experiment at 30, 60 minutes after inhalation and at the end of the experiment.
(§2) The primary outcome of the study was to characterize the inter-individual variability of Δ^9-THC during the absorption phase. The secondary outcome included (a) monitoring adverse effects, (b) blood pressure, and heart rate; and (c) monitoring the response of single-ascending dose with the use of the study device. In addition, the influence of the use of the trial device on the cognitive status of the subject was assessed. A Short Blessed Test cognitive test^19 was used for the purpose of the trial.
The Short Blessed Test, a six-item test, was used as a diagnostic tool enabling the cognitive status evaluation of the volunteers. Each item was scored and total scores were calculated on the following cut off points: Normal or minimally impaired: 0-8, Moderately impaired: 9-19, Severely impaired: 20-33.

[2] = Blood pressure, pulse rate and oxygen saturation after inhalation; format: in vivo, human; settings: for DBP (diastolic blood pressure) / HR (heart rate) / SBP (systolic blood pressure) / SO2 (blood oxygen saturation): mean value
Protocol: as §1, §2

[3] = Single-ascending dose pharmacokinetic study: plasma THC after a 3 second inhalation from the vaporizer device; format: in vivo, human; settings: for AUC(0-inf) / Tmax / Cmax: human, plasma, inhaled, single inhalation, mean ± SD; for Cmax: read-out: Δ^9-THC Cmax
Protocol: A study was conducted to investigate the pharmacokinetics, efficacy, safety, and ease of use of a vaporizer device of the present technology for treating disorders in humans. Volunteers were recruited for participation in the study and met the following inclusion criteria: (a) age >30 and <70 years; (b) no known medical problems; and (c) if applicable, negative urine pregnancy test (β human […] gonadotropin pregnancy test). Exclusion criteria were the presence of (a) significant cardiac or pulmonary disease, (b) history of a psychotic or anxiety disorder, (c) pregnancy, pregnancy attempt or breastfeeding, (d) presence of a neuropathic or non-neuropathic pain disorder, (e) low systolic blood pressure, ([…]) (f) diabetes (g) first degree family history of psychotic or anxiety disorder, (h) history of drug addiction, (i) history of drug misuse, (j) concurrent use the following drugs: rifampicin, rifabutin, carbamazepine, or phenobarbital, primidone, (k) using the following plants: Hypericum perforatum, troglitazone, (l) alcohol consumption up to 12 hours prior to the study, (m) abnormal parameters such as heart rate above 100 BPM, blood pressure below 90 mm Hg (systolic), saturation below 91 percent, (n) recreational Cannabis use up to 72 hours before the study, (o) any chronic use of drugs, and (q) age less than 30 or more than 70.
The participants were divided into four dose related groups each group included 3 volunteers. After 3 successful training inhalations, each participant inhaled 3 seconds of a single dose. Dose groups were 10±0.1 mg, 15±0.1 mg, 20±0.1 mg, 25±0.1 mg of THC.
Blood samples were drawn immediately before and at 2, 3, 4, 10, 30 minutes after inhalation for monitoring of plasma levels of THC and its active metabolite Δ^9 Carboxy-THC. The blood was collected in 13×75 mm purple-top Vacutainer tubes containing EDTA. Samples were kept on ice and centrifuged within 30 minutes. Plasma samples were aliquoted into 3.6-mL polypropylene Nunc cryotubes (Thomas Scientific, NJ, USA), stored frozen at −20° C., and analyzed within 6 weeks. The cannabinoid analysis was performed at Pactox (Pacific Toxicology Laboratories) Labs by multidimensional gas chromatography mass spectrometry method.
The study device was as described above in connection with the figures and designed to vaporize up to 80 doses of processed cannabis fibs, resulting in the pulmonary delivery of compounds. The inhaler consisted of a multi-dose cartridge, indication light, and power switch. The cartridge was preloaded with multiple pre-weighed 10.0±0.1 mg, 15.0±0.1 mg, 20.0±0.1 mg, and 25.0±0.1 mg doses of processed cannabis flos. The vaporization process was segmental and triggered by the volunteer pressing the operating button. The segmental evaporation process is aimed at turning THCA into THC^1 and is done by: (1) stage I—heating the material to 100° C. for 9 seconds; (2) stage II—heating the material to 150° C. for 9 seconds; (3) stage III—heating the material to 190° C. to 200° C. (evaporation temperature) for the 3 seconds of inhalation. The transition to the next dose/inhalation is performed by using a mechanical rotation wheel. The device engages automatic thermal control that ensures a complete, high-efficiency delivery of carmabinoid vapors to the lungs. The device allowed for “single inhalation” dose resolution, instantaneous administration, and required no preprocessing or any subject intervention other than the inhalation itself.
The cannabis flowers used in the study were of the Alaska strain provided by “Tikun Olam.” This strain is a hybrid of 70% sativa and 30% indica strains. This strain consists of 20-22% THC and 0% CBD. The processed cannabis flowers used in this study were tested for THC by modified gas-chromatography method without derivatization 1.8 resulting in Δ^9-THC content of 20.08%. The flowers were loaded into the inhaler so as to retain the natural cannabis compounds in. their raw form. […]

[4] = intravenous THC administration, cited from earlier work
[5] = ascending doses 10-25 mg, inhalation

SMILES: CCCCCc1cc(O)c2c(c1)OC(C)(C)[C@@H]1CCC(C)=C[C@@H]21 [THC, tetrahydrocannabinol]
- SET 0 min (Short Blessed Test score) ([1]; 10 mg dose group): 0.66 ± 0.94
- SET 30 min (Short Blessed Test score) ([1]; 10 mg dose group): 2.33 ± 3.29
- SET 120 min (Short Blessed Test score) ([1]; 10 mg dose group): 2.66 ± 0.47
- SET 0 min (Short Blessed Test score) ([1]; 15 mg dose group): 0
- SET 30 min (Short Blessed Test score) ([1]; 15 mg dose group): 1.33 ± 1.88
- SET 120 min (Short Blessed Test score) ([1]; 15 mg dose group): 3 ± 0.81
- SET 0 min (Short Blessed Test score) ([1]; 20 mg dose group): 2 ± 1.63
- SET 30 min (Short Blessed Test score) ([1]; 20 mg dose group): 0.66 ± 0.94
- SET 120 min (Short Blessed Test score) ([1]; 20 mg dose group): 0.66 ± 0.94
- SET 0 min (Short Blessed Test score) ([1]; 25 mg dose group): 2 ± 2.82
- SET 30 min (Short Blessed Test score) ([1]; 25 mg dose group): 0
- SET 120 min (Short Blessed Test score) ([1]; 25 mg dose group): 0
- cognitive impairment (Short Blessed Test) ([1]; all volunteers, 0-8 normal or minimally impaired): minimal cognitive impairment
- DBP (diastolic blood pressure) ([2]; 10 mg dose group): 69.46 ± 7.86 mmHg
- HR (heart rate) ([2]; 10 mg dose group): 71.66 ± 10.14
- SBP (systolic blood pressure) ([2]; 10 mg dose group): 113.4 ± 10.23 mmHg
- SO2 (blood oxygen saturation) ([2]; 10 mg dose group): 99.93 ± 0.25%
- DBP (diastolic blood pressure) ([2]; 15 mg dose group): 63.85 ± 9.78 mmHg
- HR (heart rate) ([2]; 15 mg dose group): 79 ± 13.37
- SBP (systolic blood pressure) ([2]; 15 mg dose group): 114.93 ± 6.88 mmHg
- SO2 (blood oxygen saturation) ([2]; 15 mg dose group): 100%
- DBP (diastolic blood pressure) ([2]; 20 mg dose group): 71.78 ± 14.95 mmHg
- HR (heart rate) ([2]; 20 mg dose group): 68.35 ± 5.83
- SBP (systolic blood pressure) ([2]; 20 mg dose group): 120.14 ± 28.03 mmHg
- SO2 (blood oxygen saturation) ([2]; 20 mg dose group): 99.92 ± 0.26%
- DBP (diastolic blood pressure) ([2]; 25 mg dose group): 80.57 ± 8.92 mmHg
- HR (heart rate) ([2]; 25 mg dose group): 77.57 ± 17.74
- SBP (systolic blood pressure) ([2]; 25 mg dose group): 130 ± 16.62 mmHg
- SO2 (blood oxygen saturation) ([2]; 25 mg dose group): 99.42 ± 0.9%
- change in blood pressure, heart rate, or blood oxygen saturation ([2]; during the time frame of the study, all dose groups): no significant change
- change in time needed to reach maximum concentration with ascending doses [3, 5]: no significant change
- change of AUC with ascending doses [3, 5]: same linear increase
- change of maximum concentration with ascending doses [3, 5]: linear increase
- AUC(0-inf) ([3]; 0.1 mg, Group IV, 25 ± 0.1 mg): 16.2 ng·h/mL
- Tmax ([3]; 0.1 mg, Group IV, 25 ± 0.1 mg): 3 min
- Cmax ([3]; 0.1 mg, Group IV, 25 ± 0.1 mg): 88.6 ± 14.8 ng/mL
- AUC(0-inf) ([3]; Group I, 10 ± 0.1 mg): 7.36 ng·h/mL
- Tmax ([3]; Group I, 10 ± 0.1 mg): 3.67 min
- Cmax ([3]; Group I, 10 ± 0.1 mg): 35.4 ± 5.97 ng/mL
- AUC(0-inf) ([3]; Group II, 15 ± 0.1 mg): 10.4 ng·h/mL
- Tmax ([3]; Group II, 15 ± 0.1 mg): 3.33 min
- Cmax ([3]; Group II, 15 ± 0.1 mg): 51.5 ± 13.8 ng/mL
- AUC(0-inf) ([3]; Group III, 20 ± 0.1 mg): 11.6 ng·h/mL
- Tmax ([3]; Group III, 20 ± 0.1 mg): 2.67 min
- Cmax ([3]; Group III, 20 ± 0.1 mg): 72.4 ± 15.9 ng/mL
- Cmax of Δ^9-THC ([4]; Reference 1): 43.8 ng/mL
- Cmax of Δ^9-THC ([4]; Reference 2): 32.8 ng/mL
- Cmax of Δ^9-THC ([4]; Reference 3): 23.8 ng/mL
